Data on one molecule can be found in ChEMBL document CHEMBL4402613, “Targeting ALK2: An Open Science Approach to Developing Therapeutics for the Treatment of Diffuse Intrinsic Pontine Glioma” (J Med Chem, 2020).

The target in data set [1] is Activin receptor type-1 (Homo sapiens, UniProt Q04771, R206H). Kind of data set: Inhibition of human ALK2 R206H mutant using casein as substrate in presence of 10 uM [gamma33P] ATP by radioactive assay.
Data set [2] concerns the target Misshapen-like kinase 1 (Homo sapiens) (UniProt Q8N4C8). Kind of data set: Inhibition of MINK (unknown origin) at 1 uM.
The conditions of data set [3]: mouse, in vivo, po, 10 mg/kg, 24 h.
The conditions of data set [4]: mouse, in vivo, po, 10 mg/kg, 24 h. The source holds these as a separate data set.
Description: Half life in CB17 SCID mouse at 10 mg/kg, po measured up to 24 hrs by LC-MS/MS analysis
Data set [5] addresses Voltage-gated inwardly rectifying potassium channel KCNH2 (Homo sapiens, UniProt Q12809).
Description: Inhibition of human ERG expressed in HEK293 cells measured after 5 mins by whole cell patch clamp method
The target in data set [6] is T1, Serine/threonine-protein kinase A-Raf (Homo sapiens) (UniProt P10398).
T1 sequence (whole entry): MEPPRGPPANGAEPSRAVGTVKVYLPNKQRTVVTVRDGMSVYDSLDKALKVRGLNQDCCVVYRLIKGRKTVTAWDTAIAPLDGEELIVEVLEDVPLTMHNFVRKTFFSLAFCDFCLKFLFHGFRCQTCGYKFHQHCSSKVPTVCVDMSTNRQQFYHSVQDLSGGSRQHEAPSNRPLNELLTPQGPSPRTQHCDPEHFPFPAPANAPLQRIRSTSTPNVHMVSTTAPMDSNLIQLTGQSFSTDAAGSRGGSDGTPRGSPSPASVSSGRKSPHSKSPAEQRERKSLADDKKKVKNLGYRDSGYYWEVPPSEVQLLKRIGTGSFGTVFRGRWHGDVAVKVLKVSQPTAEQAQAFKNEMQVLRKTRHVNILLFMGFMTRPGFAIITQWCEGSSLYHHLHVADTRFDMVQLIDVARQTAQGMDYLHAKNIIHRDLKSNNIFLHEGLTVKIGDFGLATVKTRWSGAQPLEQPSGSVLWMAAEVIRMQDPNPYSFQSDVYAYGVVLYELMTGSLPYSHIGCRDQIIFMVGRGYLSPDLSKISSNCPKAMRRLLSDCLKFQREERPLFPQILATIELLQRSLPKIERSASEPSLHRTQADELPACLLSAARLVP
Kind of data set: Inhibition of ARAF (unknown origin) at 1 uM.

The conditions of data set [7]: human, microsomes, 1 h, 1 µM.
Description: Microsomal stability in human liver microsomes assessed as parent compound remaining at 1 uM and 37 degree C measured after 60 mins in presence of NADP+ by LC-QTOF/MS analysis
Data set [8] deals with Activin receptor type-1 (Homo sapiens, UniProt Q04771, G328V). Kind of data set: Inhibition of ALK2 G328V mutant (unknown origin).
Sequence of Activin receptor type-1 (Homo sapiens, UniProt Q04771, G328V) (Q04771 21-509 G328V limits assumed): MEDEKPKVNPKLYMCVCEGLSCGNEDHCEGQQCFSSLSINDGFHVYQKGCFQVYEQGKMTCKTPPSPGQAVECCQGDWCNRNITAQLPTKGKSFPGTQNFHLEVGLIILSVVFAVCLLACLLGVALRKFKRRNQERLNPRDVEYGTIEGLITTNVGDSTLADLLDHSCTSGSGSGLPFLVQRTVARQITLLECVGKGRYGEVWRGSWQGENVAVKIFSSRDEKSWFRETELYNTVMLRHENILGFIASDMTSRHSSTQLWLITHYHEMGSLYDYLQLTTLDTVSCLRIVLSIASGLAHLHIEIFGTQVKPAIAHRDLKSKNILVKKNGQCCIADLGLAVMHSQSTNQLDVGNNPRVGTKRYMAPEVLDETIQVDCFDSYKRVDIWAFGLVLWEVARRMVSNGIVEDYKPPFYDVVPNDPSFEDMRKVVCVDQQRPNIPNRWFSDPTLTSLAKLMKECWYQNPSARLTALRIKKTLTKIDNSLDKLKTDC
The target in data set [9] is Bone morphogenetic protein receptor type-1B (Homo sapiens) (UniProt O00238). Put plainly: Inhibition of ALK6 (unknown origin) at 1 uM.
Sequence of Bone morphogenetic protein receptor type-1B (Homo sapiens) (O00238 whole entry): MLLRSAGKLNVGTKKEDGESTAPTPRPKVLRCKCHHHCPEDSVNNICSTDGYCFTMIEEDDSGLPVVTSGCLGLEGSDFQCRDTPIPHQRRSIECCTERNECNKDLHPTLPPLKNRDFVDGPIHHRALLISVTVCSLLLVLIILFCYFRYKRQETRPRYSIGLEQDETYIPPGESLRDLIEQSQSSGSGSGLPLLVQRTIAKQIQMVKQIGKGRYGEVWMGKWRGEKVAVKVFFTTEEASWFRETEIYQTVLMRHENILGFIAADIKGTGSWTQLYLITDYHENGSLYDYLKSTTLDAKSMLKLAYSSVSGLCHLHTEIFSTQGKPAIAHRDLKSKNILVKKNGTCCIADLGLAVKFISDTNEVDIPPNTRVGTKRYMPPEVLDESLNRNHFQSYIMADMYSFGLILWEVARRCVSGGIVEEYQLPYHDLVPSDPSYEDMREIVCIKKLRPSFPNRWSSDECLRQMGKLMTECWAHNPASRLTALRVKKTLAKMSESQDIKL
For data set [10] the following is noted: mouse, in vivo, po, 10 mg/kg, 24 h. This is another data set of the same source.
For data set [11] the following is noted: mouse, brain, po, 100 mg/kg, 4 h.
Description: Ratio of total drug concentration from brain to plasma in CB17 SCID mouse at 100 mg/kg, po measured after 4 hrs
The target of the next data set is T2, TGF-beta receptor type-1 (Homo sapiens, UniProt P36897).
T2 sequence (P36897 whole entry): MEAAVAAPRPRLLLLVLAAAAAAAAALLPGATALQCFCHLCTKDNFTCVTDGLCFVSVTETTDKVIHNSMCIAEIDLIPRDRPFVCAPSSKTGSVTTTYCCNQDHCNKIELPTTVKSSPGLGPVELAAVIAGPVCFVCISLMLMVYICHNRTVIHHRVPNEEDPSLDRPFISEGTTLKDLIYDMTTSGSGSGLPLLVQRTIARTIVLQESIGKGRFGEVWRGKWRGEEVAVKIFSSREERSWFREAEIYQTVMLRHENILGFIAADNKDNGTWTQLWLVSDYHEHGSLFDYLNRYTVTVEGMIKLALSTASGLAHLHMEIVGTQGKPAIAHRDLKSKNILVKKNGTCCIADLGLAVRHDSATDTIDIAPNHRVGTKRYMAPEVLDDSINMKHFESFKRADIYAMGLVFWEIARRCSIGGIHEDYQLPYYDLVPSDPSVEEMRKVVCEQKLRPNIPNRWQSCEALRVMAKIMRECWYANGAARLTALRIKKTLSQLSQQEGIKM
It counts as cell-based, HEK293.

Data set [12] concerns the target Activin receptor type-1 (Homo sapiens, UniProt Q04771, R258G). Kind of data set: Inhibition of ALK2 R258G mutant (unknown origin).
Another data set in a line: in vitro. Particulars: human, Caco-2.
For data set [13], the target named is Bone morphogenetic protein receptor type-1A (Homo sapiens) (UniProt P36894). Kind of data set: Inhibition of ALK3 (unknown origin) at 1 uM.
Sequence of Bone morphogenetic protein receptor type-1A (Homo sapiens) (P36894 whole entry): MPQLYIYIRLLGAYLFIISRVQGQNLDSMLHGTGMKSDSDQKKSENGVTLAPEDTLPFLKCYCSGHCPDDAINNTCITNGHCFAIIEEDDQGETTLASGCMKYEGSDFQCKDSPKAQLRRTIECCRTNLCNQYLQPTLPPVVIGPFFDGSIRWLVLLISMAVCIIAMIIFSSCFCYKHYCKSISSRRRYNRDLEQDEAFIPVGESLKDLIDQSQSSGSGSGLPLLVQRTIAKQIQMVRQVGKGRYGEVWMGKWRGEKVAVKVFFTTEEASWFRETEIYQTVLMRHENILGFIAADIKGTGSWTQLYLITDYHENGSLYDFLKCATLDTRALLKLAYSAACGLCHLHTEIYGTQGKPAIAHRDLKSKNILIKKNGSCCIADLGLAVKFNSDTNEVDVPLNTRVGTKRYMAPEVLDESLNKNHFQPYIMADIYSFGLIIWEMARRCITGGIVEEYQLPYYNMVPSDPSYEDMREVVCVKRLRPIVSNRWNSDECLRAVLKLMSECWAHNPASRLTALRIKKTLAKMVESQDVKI
Data set [14] addresses Mitogen-activated protein kinase kinase kinase kinase 4 (Homo sapiens) (UniProt O95819). Put plainly: Inhibition of MAP4K4 (unknown origin) at 1 uM.
For data set [15] the following is noted: mouse, microsomes, 1 h, 1 µM.
Description: Microsomal stability in CD-1 mouse liver microsomes assessed as parent compound remaining at 1 uM and 37 degree C measured after 60 mins in presence of NADP+ by LC-QTOF/MS analysis
Data set [16] concerns the target T3, Activin receptor type-1 (Homo sapiens, UniProt Q04771).
T3 sequence (Q04771 whole entry): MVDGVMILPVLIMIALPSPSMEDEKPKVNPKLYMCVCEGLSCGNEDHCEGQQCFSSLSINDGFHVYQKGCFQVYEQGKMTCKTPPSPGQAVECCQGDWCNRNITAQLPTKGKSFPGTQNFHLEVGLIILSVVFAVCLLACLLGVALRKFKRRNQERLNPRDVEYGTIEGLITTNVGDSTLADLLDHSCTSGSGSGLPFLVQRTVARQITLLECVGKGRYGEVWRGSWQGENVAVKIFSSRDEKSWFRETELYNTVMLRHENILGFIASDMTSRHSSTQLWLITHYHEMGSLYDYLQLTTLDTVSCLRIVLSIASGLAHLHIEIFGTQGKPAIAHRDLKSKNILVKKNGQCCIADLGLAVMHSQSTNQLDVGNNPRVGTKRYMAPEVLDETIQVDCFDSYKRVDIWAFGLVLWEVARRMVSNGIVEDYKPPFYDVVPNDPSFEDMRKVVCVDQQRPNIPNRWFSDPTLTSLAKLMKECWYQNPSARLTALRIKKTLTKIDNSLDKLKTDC
Kind of data set: Inhibition of C-terminal nanoluciferase-fused ALK2 (unknown origin) expressed in HEK293 cells incubated for 2 hrs followed by NanoBRET NanoGlo Substrate addition by NanoBRET assay. It counts as cell-based.

Activity calls are given as the source filed them. No cut-off for these calls is given here.

Sequence of Activin receptor type-1 (Homo sapiens, UniProt Q04771, R206H) (Q04771 21-509 R206H limits assumed): as the sequence (Q04771 21-509 G328V limits assumed) above, with R186H, V308G counted along it
Sequence of Voltage-gated inwardly rectifying potassium channel KCNH2 (Q12809 whole entry): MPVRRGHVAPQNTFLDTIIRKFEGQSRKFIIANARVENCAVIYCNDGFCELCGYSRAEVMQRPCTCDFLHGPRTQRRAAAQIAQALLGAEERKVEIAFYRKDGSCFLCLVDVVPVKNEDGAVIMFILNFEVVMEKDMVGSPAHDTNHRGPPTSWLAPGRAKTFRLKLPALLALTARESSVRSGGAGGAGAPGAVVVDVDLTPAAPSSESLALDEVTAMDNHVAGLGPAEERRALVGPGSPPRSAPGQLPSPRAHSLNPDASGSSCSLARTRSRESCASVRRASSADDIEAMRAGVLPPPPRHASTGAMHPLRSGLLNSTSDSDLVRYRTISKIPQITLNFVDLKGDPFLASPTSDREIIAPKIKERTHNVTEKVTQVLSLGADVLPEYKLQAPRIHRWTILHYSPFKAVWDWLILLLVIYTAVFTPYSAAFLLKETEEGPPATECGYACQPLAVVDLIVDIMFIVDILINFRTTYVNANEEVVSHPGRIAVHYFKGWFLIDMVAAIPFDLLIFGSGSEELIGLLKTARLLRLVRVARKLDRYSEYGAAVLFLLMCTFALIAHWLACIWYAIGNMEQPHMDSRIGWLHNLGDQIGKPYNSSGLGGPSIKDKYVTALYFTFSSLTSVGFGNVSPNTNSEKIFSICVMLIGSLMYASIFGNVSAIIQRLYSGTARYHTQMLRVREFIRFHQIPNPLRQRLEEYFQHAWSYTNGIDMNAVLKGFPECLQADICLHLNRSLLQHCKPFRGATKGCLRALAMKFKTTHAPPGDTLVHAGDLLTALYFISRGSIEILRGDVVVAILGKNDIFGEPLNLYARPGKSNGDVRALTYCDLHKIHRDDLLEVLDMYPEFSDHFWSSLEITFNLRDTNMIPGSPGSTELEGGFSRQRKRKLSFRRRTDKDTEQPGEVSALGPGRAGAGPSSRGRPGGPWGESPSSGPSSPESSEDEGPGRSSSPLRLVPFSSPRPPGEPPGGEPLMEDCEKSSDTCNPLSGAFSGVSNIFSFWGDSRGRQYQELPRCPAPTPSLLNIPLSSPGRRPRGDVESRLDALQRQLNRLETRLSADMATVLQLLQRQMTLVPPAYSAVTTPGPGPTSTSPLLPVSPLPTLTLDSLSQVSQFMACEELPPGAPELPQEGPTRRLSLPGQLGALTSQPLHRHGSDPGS
Sequence of Activin receptor type-1 (Homo sapiens, UniProt Q04771, R258G) (Q04771 21-509 R258G limits assumed): as the sequence (Q04771 21-509 G328V limits assumed) above, with R238G, V308G counted along it
Sequence of Mitogen-activated protein kinase kinase kinase kinase 4 (Homo sapiens) (O95819 2-1239 limits assumed): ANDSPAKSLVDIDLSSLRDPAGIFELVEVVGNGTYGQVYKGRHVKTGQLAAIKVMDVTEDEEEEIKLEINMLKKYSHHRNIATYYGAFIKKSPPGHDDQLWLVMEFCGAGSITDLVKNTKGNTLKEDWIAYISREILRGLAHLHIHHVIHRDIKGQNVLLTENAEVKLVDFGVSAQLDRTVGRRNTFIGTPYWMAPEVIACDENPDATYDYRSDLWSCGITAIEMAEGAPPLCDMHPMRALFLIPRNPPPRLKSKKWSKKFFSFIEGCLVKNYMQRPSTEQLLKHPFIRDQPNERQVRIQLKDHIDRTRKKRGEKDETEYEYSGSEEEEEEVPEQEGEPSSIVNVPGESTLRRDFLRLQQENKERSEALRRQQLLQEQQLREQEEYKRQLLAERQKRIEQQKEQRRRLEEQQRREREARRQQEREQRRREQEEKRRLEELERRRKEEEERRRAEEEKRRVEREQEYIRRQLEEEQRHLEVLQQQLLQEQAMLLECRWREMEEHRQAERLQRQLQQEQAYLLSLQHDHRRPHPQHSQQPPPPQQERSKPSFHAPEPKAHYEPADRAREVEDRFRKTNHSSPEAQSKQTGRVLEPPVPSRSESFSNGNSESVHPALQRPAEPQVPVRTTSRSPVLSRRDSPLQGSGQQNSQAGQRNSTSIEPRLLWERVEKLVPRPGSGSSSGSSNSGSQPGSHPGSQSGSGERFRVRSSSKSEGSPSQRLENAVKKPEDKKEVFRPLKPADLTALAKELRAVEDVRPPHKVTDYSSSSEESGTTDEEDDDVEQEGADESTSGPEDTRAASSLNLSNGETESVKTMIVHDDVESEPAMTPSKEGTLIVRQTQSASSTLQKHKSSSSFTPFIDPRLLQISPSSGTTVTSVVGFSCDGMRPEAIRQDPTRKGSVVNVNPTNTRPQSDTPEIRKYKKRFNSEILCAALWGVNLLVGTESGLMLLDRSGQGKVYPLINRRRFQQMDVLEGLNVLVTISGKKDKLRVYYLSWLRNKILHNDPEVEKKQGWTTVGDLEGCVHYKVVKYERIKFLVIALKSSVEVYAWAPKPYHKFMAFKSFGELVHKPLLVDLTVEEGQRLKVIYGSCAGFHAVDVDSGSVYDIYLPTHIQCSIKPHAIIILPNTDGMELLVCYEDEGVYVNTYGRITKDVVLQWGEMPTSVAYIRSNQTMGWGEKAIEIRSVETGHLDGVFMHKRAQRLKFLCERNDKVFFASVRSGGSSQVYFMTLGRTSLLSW
Description for TGF-beta receptor type-1: Inhibition of ALK5 (unknown origin) expressed in HEK293 cells transfected with CAGA-luciferase and Renilla luciferase reporter measured after 24 hrs by dual luciferase reporter assay
Description for in vitro: Apparent permeability across basolateral to apical membrane in human Caco2 cells at 5 uM incubated for 120 mins in orbital shaker by LC-QTOF/MS analysis

On to `COc1cc(-c2cncc(-c3ccc(N4CCN(C)CC4)cc3)c2C)cc(F)c1C(N)=O`, for which the IC50 on Activin receptor type-1 [1] is 19 nM; in data set [5], above 30000 nM; at Activin receptor type-1 [8], 16 nM; on TGF-beta receptor type-1 it was 4300 nM; against Activin receptor type-1 [12], 17 nM; on Activin receptor type-1 [16] it was 93 nM. Moreover, the inhibition entry in data set [2], in [6], in [9], in data set [13] and in data set [14] was “Active” in each case. This molecule came in with an AUC in data set [3] of 4056 ng·h/mL. This molecule showed a t1/2 in data set [4] of 2.56 h. In addition, the Stability result in data set [7] and in [15] was “Stable” throughout. Moreover, the Cmax in data set [10] came to 2140 ng/mL. Besides, the BPR in data set [11] came out at 0.178. This molecule came in with a Papp B→A at 2 h, 5 µM in “in vitro” of 16.2 ×10⁻⁶ cm/s.
